Experimental data taken from ChEMBL document CHEMBL3826917, “Anti-inflammatory properties of pterocarpanquinone LQB-118 in mice” (Bioorg Med Chem, 2016).
Calls of active or inactive are those of the source. No cut-off for these calls is given here.

Tests used:
[1] = test system: Mus musculus; experiment: Toxicity in LPS-induced C57BL/6 mouse model of lung inflammation assessed as change in liver weight at 10 mg/kg, ip administered 1 hr prior to LPS-challenge measured after 3 hrs relative to control; assay type: organism-based; settings: in vivo
[2] = test system: Mus musculus; experiment: Toxicity in LPS-induced C57BL/6 mouse model of lung inflammation assessed as change in spleen weight at 10 mg/kg, ip administered 1 hr prior to LPS-challenge measured after 3 hrs relative to control; assay type: organism-based; settings: in vivo
[3] = test system: Mus musculus; experiment: Antiinflammatory activity in LPS-induced C57BL/6 mouse model of lung inflammation assessed as reduction in TNF-alpha release in bronchoalveolar lavage fluid at 10 mg/kg, ip administered 1 hr prior to LPS-challenge measured after 3 hrs by ELISA; assay type: functional, organism-based
[4] = test system: Mus musculus; experiment: Antiinflammatory activity in LPS-induced C57BL/6 mouse model of lung inflammation assessed as reduction in keratinocyte-derived chemokine release in bronchoalveolar lavage fluid at 10 mg/kg, ip administered 1 hr prior to LPS-challenge measured after 3 hrs by ELISA; assay type: functional, organism-based
[5] = test system: Mus musculus; experiment: (§1) Antiinflammatory activity in LPS-induced C57BL/6 mouse model of lung inflammation assessed as decrease in neutrophil infiltration in bronchoalveolar lavage fluid at 10 mg/kg, ip administered 1 hr prior to LPS-challenge measured after 3 hrs by Diff-Quik staining-based coulter particle counter method; assay type: functional, organism-based
[6] = test system: Mus musculus; experiment: Antiinflammatory activity in LPS-induced C57BL/6 mouse model of lung inflammation assessed as reduction in NF-kappaB activation at 10 mg/kg, ip administered 1 hr prior to LPS-challenge measured after 3 hrs by electrophoretic mobility shift assay; assay type: functional, organism-based
[7] = test system: PBMC; experiment: Inhibition of LPS-induced TNF-alpha production in human PBMC at 1 to 100 uM administered prior to LPS-challenge measured after 2 hrs by ELISA; assay type: functional, cell-based
[8] = test system: Mus musculus; experiment: Toxicity in LPS-induced C57BL/6 mouse model of lung inflammation assessed as change in liver weight at 1 to 100 mg/kg, ip administered 1 hr prior to LPS-challenge measured after 3 hrs relative to control; assay type: organism-based; settings: in vivo
[9] = test system: Mus musculus; experiment: Toxicity in LPS-induced C57BL/6 mouse model of lung inflammation assessed as change in spleen weight at 1 to 100 mg/kg, ip administered 1 hr prior to LPS-challenge measured after 3 hrs relative to control; assay type: organism-based; settings: in vivo
[10] = test system: Mus musculus; experiment: as §1, with “fluid at 1 to 10 mg/kg,” for “fluid at 10 mg/kg,”; assay type: functional, organism-based
[11] = test system: Mus musculus; experiment: as §1, with “100” for “10”, “method relative to vehicle-treated control” for “method”; assay type: functional; settings: C57BL/6, ip

SMILES | Activity [1] | Activity [2] | Activity [3] | Activity [4] | Activity [5] | Activity [6] | inhibition [7] | Activity [8] | Activity [9] | Activity [10] | inhibition in vivo at 100 mg/kg [11]
C[C@@H]1C[C@H]2[C@@H]3CCC4=CC(=O)C=C[C@]4(C)[C@@]3(F)[C@@H](O)C[C@]2(C)[C@@]1(O)C(=O)CO [DEXAMETHASONE] | Toxic | Toxic | Active | Active | Active |  |  |  |  |  | 
CC(=O)Oc1ccccc1C(=O)O |  |  | Active | Active |  | Active |  |  |  |  | 
CC(C)=CCC1=C(O)C(=O)c2ccccc2C1=O |  |  |  |  |  |  | inactive |  |  |  | 
O=C1C2=C(C(=O)c3ccccc31)C1Oc3ccccc3C1CO2 (racemic) |  |  | Active | inactive |  | Active |  | Non-toxic | Non-toxic | Active | 90%
